We go through 63 compounds from a melting point compilation (Tetko et al.; mined from patent text by program, amines drawn as free bases though some values may be those of a salt).

In general, melting point refers to the temperature, or range, at which the solid turns liquid.

Regarding `CN(C)c1nc2cc(C(F)(F)F)ccc2n1Cc1ccc(Cl)cc1`, the melting point was 103 to 107 °C.

For the compound `COc1ccc(CCNCC(O)c2ccccc2)cc1Cl` (stereo not drawn), the melting point lay within 95 to 96 °C. Then `CCCCC[C@H]1CC[C@H](c2ccc(NC(=O)OC)cc2)CC1`, with 105 to 110 °C; and `COc1cc(N2CCCN(C)CC2)ccc1Nc1ncc2ccc(-c3ccccc3N(C)S(C)(=O)=O)n2n1`, with 98 to 105 °C; and `Oc1cc(-c2ccccc2)nc2nn(-c3ccccc3)cc12`, with 280 to 281 °C. In the case of `CCCCCCNC(=O)n1nc(Oc2c(Cl)cc(C(F)(F)F)cc2Cl)c(Cl)c1C`, the melting point is 86 to 88 °C.

Compound `CC(C)(C)OC(=O)c1ncn2c1[C@@H]1CCCN1C(=O)c1cc(F)ccc1-2` showed a melting point of 154 to 155 °C. For `CC(C)(C)NC(=O)c1nn(-c2ccc(C(F)(F)F)cc2)c2c1C1CCC2CC1` the value was 174 to 176 °C; for `COc1cc2c3ccc(OC)c(OC)c3n(S(=O)(=O)c3ccccc3)c2cc1OC`, 205 to 206 °C; for `Cc1csc2nc(S(=O)(=O)Nc3cccc4sccc34)nn12`, 205 to 209 °C. Then `NC(=O)Cc1cccc(Oc2ccccc2)c1`, with 115 to 117 °C; and `Cc1ccc(S(=O)(=O)OCC2COc3ccc([N+](=O)[O-])c(N)c3O2)cc1` (stereo not drawn), with 155 °C. With `Cc1ccc(Cl)cc1N1CCN(c2nc(=O)c3cc(C(F)(F)F)cc([N+](=O)[O-])c3s2)CC1`, the melting point lay within 158 to 161 °C. For `Cc1c2c(c(-c3ccccc3)n1C)N(C)C(=O)CN=C2c1ccccc1` the value was 232 to 234 °C; for `CCC(=O)c1ccc(CCN(C(C)=O)S(=O)(=O)c2ccc(Cl)cc2)cc1`, 91 to 92 °C. As for `CCCc1ccc(OC(C)=O)c(C2(OC(C)=O)C(=O)c3ccccc3C2=O)c1`, the melting point lay in the range of 108 to 111 °C.

`O=[N+]([O-])c1ccc(Oc2ccc(Cl)cc2Cl)cc1Oc1ccc(Cl)cc1Cl` registered a melting point of 91 to 93 °C. For `COc1ccc(CC(C)(C)NC(=O)N(C)O)cc1OC` the value was 77 to 78 °C; for `CC(C)c1c(C(=O)c2cccc(C=CC#N)c2)[nH]c(=O)[nH]c1=O`, 210 to 211 °C; for `O=S(=O)(c1ccccc1)c1c[nH]c2c(C3CCNCC3)cccc12`, 186 to 190 °C. The compound `O=[N+]([O-])c1ccc(C2NCCc3c2[nH]c2ccccc32)cc1` (stereo not drawn) had a melting point of 190 °C.

Compound `CCOC(=O)c1c(CO)c(C)n(C)c1C` returned a melting point of 184 to 186 °C. `C[C@@H](Nc1ncnc2[nH]c(-c3ccc(CNC(=O)CN4CCCCC4)cc3)cc12)c1ccccc1` registered a melting point of 194 to 196 °C.

For the compound `N#Cc1ncccc1CCc1cccc(Cl)c1`, the melting point is 72 to 73 °C. On to `CC#CCOc1ccc(S(=O)(=O)N2Cc3ccccc3N(C(=O)c3ccco3)CC2C(=O)OC)cc1` (stereo not drawn), for which the melting point fell in the range of 119 to 120 °C. In turn, `CC(CN(C)C)On1c(=O)nc(-c2ccc3c(c2)OCO3)c2cc3c(cc21)OCO3` (stereo not drawn) had a melting point of 160 to 165 °C.

For the compound `COC=NC(C#N)=C(N)C#N`, the melting point was 138 to 139 °C. The compound `COCCOCc1c(CN(C)CC(O)c2c[nH]c3ccccc23)sc2c(=O)c(C(=O)NCc3ccc(Cl)cc3)cn(C)c12` (stereo not drawn) returned a melting point of 167 to 169 °C. Compound `CCC(c1oc2ccccc2c(=O)c1-c1cccc(F)c1)n1nc(-c2ccc3c(C)n[nH]c3c2)c2c(N)ncnc21` (stereo not drawn) yielded a melting point of 268 to 270 °C. For `Oc1cc2c(cc1Sc1ccccc1)OCC2` the value was 80 to 81 °C; for `C=CCOC(=O)c1ccc(N)cc1O`, 58 to 59 °C; for `COc1ccc(C=CC(=O)CC(=O)C=Cc2ccc(OC)c(O)c2)cc1O`, 190 to 192 °C. For `COCCOc1ccc(I)cc1` the value was 36 to 37 °C. Then `COc1ccnc(CSc2nc3cc(F)c(F)cc3[nH]2)c1C`, with 216 to 218 °C; and `O=C1Nc2ncccc2CN1C1CCN(Cc2ccccc2)CC1`, with 187 °C. `Cc1cccc(-c2[nH]c(C(C)C)nc2-c2ccc(F)c(-c3ccc(S(C)(=O)=O)cn3)c2)n1` yielded a melting point of 105 to 108 °C.

In turn, `CC(=O)OC1CSC(Oc2cncc(-c3ccc(C#N)c(Cl)c3)c2)C(OC(C)=O)C1OC(C)=O` (stereo not drawn) showed a melting point of 148 to 150 °C.

`COC(=O)CCc1ccc(NC(=O)OC(C)(C)C)cc1`: the melting point was in the range of 72 to 73.5 °C. For `Oc1nc(-c2ccc(F)cc2)sc1-c1ccccc1` the value was 231 to 233 °C. `CC(C)(C)OC(=O)N1C(=O)c2ccccc2C1=O` showed a melting point of 90 to 92 °C.

Compound `NC(=O)c1cc([N+](=O)[O-])cc(Br)n1` showed a melting point of 179 to 180 °C. In turn, `COc1ccc(Nc2nccc(-c3cccnc3)n2)cc1` returned a melting point of 121 to 122 °C.

Consider `Cc1ccc(O)c(C(CCCC(c2cc(C)ccc2O)c2cc(C)ccc2O)c2cc(C)ccc2O)c1`, for which the melting point fell in the range of 220 to 228 °C. For `CC(=O)OC1CSC(Oc2ccc(-c3ccc(C(F)(F)F)cc3)nc2)C(OC(C)=O)C1OC(C)=O` (stereo not drawn), the melting point is 178 to 180 °C. As for `Cc1ccc2c(c1)C=Cc1cc(C)ccc1C2c1cn(-c2ccnc(NCC(=O)O)n2)c(=O)[nH]c1=O`, the melting point lay within 260 to 263 °C. Compound `O=C(O)c1csc2ccc(OS(=O)(=O)c3ccccc3)cc12` gave a melting point of 202 to 203 °C. `CCOC(=O)c1ccc(-n2cnnc2)cc1` registered a melting point of 209 to 211 °C. Regarding `O=c1[nH]cnc2c(Br)c(Cl)sc12`, the melting point is above 280 °C. For `C=CCn1c(=O)n(-c2cccc(C)n2)c2ncccc21` the value was 111 to 112 °C; for `COc1cccc2c(NCc3ccccc3C)nccc12`, 121 to 125 °C. `CCN1CCN(CCN2CC[C@H](NC(=O)c3cc(Cl)c(N)cc3OC)[C@H](OC(=O)N3CCCC3)C2)C1=O` (relative stereo) displayed a melting point of 214 °C. For `O=c1ccn2ncc(-c3cccs3)c2[nH]1` the value was 231 to 232 °C; for `COc1cc(NCCCCCCN2CCN(c3ccc(Cl)c(Cl)c3)CC2)c2nccc(C)c2c1`, 92 to 94 °C. For `Cn1ncc(/C=C/C(=O)Nc2ccc3[nH]c(=O)oc3c2)c1-c1ccc(F)cc1` the value was above 300 °C; for `O=C(O)CCCCCCc1ccc2ccccc2c1[N+](=O)[O-]`, 84 to 89 °C. Then `Cc1ccc(C(=O)c2cccc(C(C)C#N)c2)cc1` (stereo not drawn), with 52 to 55 °C. Regarding `COC(=O)c1cc(C2CCCO2)c(C(F)(F)F)cc1N` (stereo not drawn), the melting point is 131 to 136 °C. On to `CC(C(N)=O)c1ccc(-c2cn3ccccc3n2)cc1` (stereo not drawn), for which the melting point lay in the range of 219 to 220 °C. `Cc1ccc(C(=NO)C(F)(F)F)cc1` came in with a melting point of 54 to 68 °C. For `O=c1[nH]ncc2[nH]c(-c3ccc(OC(F)F)c4c3C=CC(C3CC3)O4)cc12` (stereo not drawn), the melting point was 232 to 242 °C. In turn, `Cc1cc(C2=NN(C(=O)N[C@H](C)c3ccccc3)[C@H](C)Cc3cc4c(cc32)OCO4)ccc1[N+](=O)[O-]` yielded a melting point of 202 to 205 °C. For `Cc1nccn1-c1cccc(OS(N)(=O)=O)c1`, the melting point lay within 197 to 200 °C. Then `C=CCOc1ccc(-c2cccc(C#N)c2)cc1`, with 80 to 90 °C.
